In patent US20240398823A1, “DUAL INHIBITOR OF HISTONE DEACETYLASE 6 AND HEAT SHOCK PROTEIN 90” (TAIPEI MEDICAL UNIVERSITY, priority 2021, published 2024):

How the values were obtained:
HCT116 = assay: MTT assay, survival of human colorectal cancer cells HCT116; type: cell-based; conditions: HCT-116, 48 h, mean ± SD, read-out: Human cell lines HCT116 IC50(μM ± SD)
Description: The effects on cell viability of the HSP90/HDAC6 dual inhibitors as described in Synthesis Examples (such as Compounds 63, 64, and 66 to 76) were evaluated. Cells were seeded in 96-well plates (5000 cells/well). The next day, the serially diluted drugs were added into the wells and incubated at 37° C. for 48 h. Cell viability was measured by the MTT assay and is expressed as percentages of surviving drug-treated cells relative to untreated control cells. The IC50 was calculated by non-linear regression analysis.
The inhibitory effect of the HSP90/HDAC6 dual inhibitors as described in Synthesis Examples on the survival rate of human colorectal cancer cells HCT116 is evaluated using MTT assay.

HDAC1 = target: T1, HDAC1 (Homo sapiens, UniProt Q13547); assay: HDAC enzymes inhibition assay (Reaction Biology), HDAC1; type: biochemical; conditions: 10-dose, 3-fold dilution from 10 μM, single experiment
T1 construct: Reaction Biology Corporation (ran the assay as a service)

HDAC3 = target: T2, HDAC3 (Homo sapiens, UniProt O15379); assay: HDAC enzymes inhibition assay (Reaction Biology), HDAC3; type: biochemical; conditions: 10-dose, 3-fold dilution from 10 μM, single experiment
T2 construct: Reaction Biology Corporation (ran the assay as a service)

HDAC6 = target: T3, HDAC6 (Homo sapiens, UniProt Q9UBN7); assay: HDAC enzymes inhibition assay (Reaction Biology), HDAC6; type: biochemical; conditions: 10-dose, 3-fold dilution from 10 μM, single experiment
T3 construct: Reaction Biology Corporation (ran the assay as a service)
T3 sequence (Q9UBN7 1-1215): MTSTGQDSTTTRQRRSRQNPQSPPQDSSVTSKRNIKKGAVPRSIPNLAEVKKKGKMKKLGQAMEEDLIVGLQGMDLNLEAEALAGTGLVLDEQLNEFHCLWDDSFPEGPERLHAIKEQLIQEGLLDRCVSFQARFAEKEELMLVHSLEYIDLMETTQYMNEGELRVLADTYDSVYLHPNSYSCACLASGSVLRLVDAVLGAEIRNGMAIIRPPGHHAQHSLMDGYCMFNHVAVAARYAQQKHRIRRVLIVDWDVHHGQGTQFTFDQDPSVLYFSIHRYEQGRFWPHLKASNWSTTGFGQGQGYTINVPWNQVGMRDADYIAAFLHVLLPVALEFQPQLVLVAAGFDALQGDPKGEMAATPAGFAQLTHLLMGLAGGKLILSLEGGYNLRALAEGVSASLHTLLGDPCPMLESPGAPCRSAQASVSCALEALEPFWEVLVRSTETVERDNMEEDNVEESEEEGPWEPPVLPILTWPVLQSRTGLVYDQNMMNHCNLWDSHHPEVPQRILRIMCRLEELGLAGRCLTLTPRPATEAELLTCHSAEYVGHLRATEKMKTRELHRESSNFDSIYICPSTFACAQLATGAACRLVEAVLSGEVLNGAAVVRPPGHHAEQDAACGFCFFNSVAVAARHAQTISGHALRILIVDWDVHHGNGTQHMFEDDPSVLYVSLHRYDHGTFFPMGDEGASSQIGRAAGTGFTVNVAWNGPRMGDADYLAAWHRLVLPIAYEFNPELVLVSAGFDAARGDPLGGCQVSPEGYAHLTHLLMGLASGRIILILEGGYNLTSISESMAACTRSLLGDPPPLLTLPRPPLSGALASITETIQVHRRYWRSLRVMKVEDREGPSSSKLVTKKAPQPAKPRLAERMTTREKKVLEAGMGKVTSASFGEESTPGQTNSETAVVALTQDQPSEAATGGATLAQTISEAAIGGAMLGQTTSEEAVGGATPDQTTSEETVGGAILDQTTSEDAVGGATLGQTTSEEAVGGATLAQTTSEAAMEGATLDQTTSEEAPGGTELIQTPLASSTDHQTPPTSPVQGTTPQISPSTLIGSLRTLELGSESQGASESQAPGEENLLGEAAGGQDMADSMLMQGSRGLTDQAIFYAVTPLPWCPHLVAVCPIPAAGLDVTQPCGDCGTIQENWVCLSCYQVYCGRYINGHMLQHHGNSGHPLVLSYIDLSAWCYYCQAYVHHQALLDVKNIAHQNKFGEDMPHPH

HSP90α = target: T4, HSP90α (Homo sapiens, UniProt P07900); assay: HSP90 inhibition assay, FITC-geldanamycin competition fluorescence polarization, HSP90α; type: binding; conditions: FITC-GM competition
T4 construct: Reaction Biology Corporation (ran the assay as a service)

HSP90β = target: T5, HSP90β (Homo sapiens, UniProt P08238); assay: HSP90 inhibition assay, FITC-geldanamycin competition fluorescence polarization, HSP90β; type: binding; conditions: FITC-GM competition
T5 construct: Reaction Biology Corporation (ran the assay as a service)
T5 sequence (P08238 whole entry): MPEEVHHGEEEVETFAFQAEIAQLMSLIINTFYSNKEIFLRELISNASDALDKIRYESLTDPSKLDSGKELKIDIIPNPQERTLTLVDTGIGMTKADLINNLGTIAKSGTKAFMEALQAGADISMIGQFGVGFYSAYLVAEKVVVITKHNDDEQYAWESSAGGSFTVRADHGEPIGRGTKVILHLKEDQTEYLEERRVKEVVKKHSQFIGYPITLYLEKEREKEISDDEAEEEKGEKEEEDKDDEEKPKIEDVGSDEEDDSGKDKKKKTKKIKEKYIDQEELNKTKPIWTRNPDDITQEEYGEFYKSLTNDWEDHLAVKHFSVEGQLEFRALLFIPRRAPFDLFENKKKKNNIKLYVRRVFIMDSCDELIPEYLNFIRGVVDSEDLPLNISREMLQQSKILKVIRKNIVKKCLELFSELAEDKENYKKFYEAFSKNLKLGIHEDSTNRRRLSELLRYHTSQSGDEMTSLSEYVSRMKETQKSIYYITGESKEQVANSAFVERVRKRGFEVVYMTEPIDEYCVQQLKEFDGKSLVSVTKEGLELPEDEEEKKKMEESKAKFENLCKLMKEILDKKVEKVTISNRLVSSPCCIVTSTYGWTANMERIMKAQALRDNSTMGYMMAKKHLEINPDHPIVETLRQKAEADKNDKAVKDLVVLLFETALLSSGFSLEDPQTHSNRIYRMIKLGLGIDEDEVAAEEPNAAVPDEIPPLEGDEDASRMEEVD

T1 sequence (Q13547 whole entry): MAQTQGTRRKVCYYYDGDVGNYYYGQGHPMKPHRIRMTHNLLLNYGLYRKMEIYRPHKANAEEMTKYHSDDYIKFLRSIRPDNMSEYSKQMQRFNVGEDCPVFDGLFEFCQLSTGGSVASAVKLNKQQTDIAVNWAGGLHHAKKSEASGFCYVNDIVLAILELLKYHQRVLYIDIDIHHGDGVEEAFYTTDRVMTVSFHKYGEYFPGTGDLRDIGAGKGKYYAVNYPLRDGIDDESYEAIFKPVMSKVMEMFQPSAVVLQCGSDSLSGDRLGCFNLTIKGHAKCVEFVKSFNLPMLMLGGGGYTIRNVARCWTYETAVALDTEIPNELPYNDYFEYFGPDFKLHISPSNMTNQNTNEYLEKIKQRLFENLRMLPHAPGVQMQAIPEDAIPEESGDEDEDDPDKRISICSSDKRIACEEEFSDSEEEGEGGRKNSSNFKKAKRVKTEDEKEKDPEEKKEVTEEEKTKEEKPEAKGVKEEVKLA
T2 sequence (O15379 whole entry): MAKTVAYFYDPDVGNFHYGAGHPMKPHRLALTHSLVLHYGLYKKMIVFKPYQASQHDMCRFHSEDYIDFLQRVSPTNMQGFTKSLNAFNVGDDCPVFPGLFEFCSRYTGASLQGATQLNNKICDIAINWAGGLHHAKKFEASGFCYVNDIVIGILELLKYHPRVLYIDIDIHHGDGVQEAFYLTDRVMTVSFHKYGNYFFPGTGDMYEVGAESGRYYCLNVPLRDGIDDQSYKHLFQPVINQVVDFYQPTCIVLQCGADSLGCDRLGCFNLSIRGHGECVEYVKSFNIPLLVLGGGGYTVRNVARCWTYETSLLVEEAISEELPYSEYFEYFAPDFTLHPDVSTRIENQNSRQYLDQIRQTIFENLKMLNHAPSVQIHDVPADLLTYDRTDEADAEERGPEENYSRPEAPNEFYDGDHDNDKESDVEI
T2 sequence (Q9Y618 395-489 partner limits assumed): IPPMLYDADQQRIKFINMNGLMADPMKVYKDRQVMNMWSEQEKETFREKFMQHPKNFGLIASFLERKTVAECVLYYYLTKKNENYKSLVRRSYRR

Row | Structure (SMILES) | IC50 (HCT116) | IC50 (HDAC1) | IC50 (HDAC3) | IC50 (HDAC6) | IC50 (HSP90α) | IC50 (HSP90β)
1 | CC(C)c1cc(C(=O)N(C)Cc2ccc(C(=O)NO)cc2)c(O)cc1O [Compound 63, 2,4-dihydroxy-N-(4-(hydroxycarbamoyl)benzyl)-5-isopropyl-N-methylbenzamide] | 1.09 ± 0.08 µM | 1760 nM | 3620 nM | 5.93 nM | 25.2 nM | 38.8 nM
2 | CCN(Cc1ccc(C(=O)NO)cc1)C(=O)c1cc(C(C)C)c(O)cc1O [Compound 64, N-ethyl-2,4-dihydroxy-N-(4-(hydroxycarbamoyl)benzyl)-5-isopropylbenzamide] | 3.69 ± 0.09 µM | 5230 nM | > 10000 nM | 23 nM | 93.9 nM | 190 nM
3 | CC(C)c1cc(C(=O)N(Cc2ccc(C(=O)NO)cc2)c2ccccc2)c(O)cc1O [Compound 66, 2,4-dihydroxy-N-(4-(hydroxycarbamoyl)benzyl)-5-isopropyl-N-phenylbenzamide] | 0.9 ± 0.09 µM | 3680 nM | 4740 nM | 23.9 nM | 54.5 nM | 200 nM
4 | CC(C)c1cc(C(=O)N(Cc2ccc(C(=O)NO)cc2)c2ccc(F)cc2)c(O)cc1O [Compound 67, N-(4-fluorophenyl)-2,4-dihydroxy-N-(4-(hydroxycarbamoyl)benzyl)-5-isopropylbenzamide] | 4.61 ± 0.11 µM | 1690 nM | 3140 nM | 22.9 nM | 40.8 nM | 103 nM
5 | CC(C)c1cc(C(=O)N(Cc2ccc(C(=O)NO)cc2)c2ccc(Cl)cc2)c(O)cc1O [Compound 68, N-(4-chlorophenyl)-2,4-dihydroxy-N-(4-(hydroxycarbamoyl)benzyl)-5-isopropylbenzamide] | 5.28 ± 0.92 µM | 1810 nM | 3030 nM | 17.2 nM | 59.9 nM | 159 nM
6 | CC(C)c1cc(C(=O)N(Cc2ccc(C(=O)NO)cc2)c2ccc(I)cc2)c(O)cc1O [Compound 69, 2,4-dihydroxy-N-(4-(hydroxycarbamoyl)benzyl)-N-(4-iodophenyl)-5-isopropylbenzamide] | 1.16 ± 0.01 µM | 1290 nM | 2170 nM | 9.17 nM | 91.4 nM | 272 nM
7 | CC(C)c1cc(C(=O)N(Cc2ccc(C(=O)NO)cc2)c2ccc3c(c2)OCO3)c(O)cc1O [Compound 70, N-(benzo[d][1,3]dioxol-5-yl)-2,4-dihydroxy-N-(4-(hydroxycarbamoyl)benzyl)-5-isopropylbenzamide] | 0.25 ± 0.04 µM | 1120 nM | 2200 nM | 12.9 nM | 39.9 nM | 95.6 nM
8 | CC(C)c1cc(C(=O)N(Cc2ccc(C(=O)NO)cc2)c2ccc(N3CCOCC3)cc2)c(O)cc1O [Compound 71, 2,4-dihydroxy-N-(4-(hydroxycarbamoyl)benzyl)-5-isopropyl-N-(4-morpholinophenyl)benzamide] | 0.47 ± 0.02 µM | 275 nM | 691 nM | 16 nM | 16.3 nM | 18.7 nM
9 | CC(C)c1cc(C(=O)N(Cc2ccc(C(=O)NO)cc2)c2ccc(N(C)C)cc2)c(O)cc1O [Compound 72, N-(4-(dimethylamino)phenyl)-2,4-dihydroxy-N-(4-(hydroxycarbamoyl)benzyl)-5-isopropylbenzamide] | 0.9 ± 0.18 µM | 1070 nM | 2190 nM | 13.7 nM | 32.2 nM | 117 nM
10 | CC(C)c1cc(C(=O)N(Cc2ccc(C(=O)NO)cc2)c2ccc(N3CCN(C)CC3)cc2)c(O)cc1O [Compound 73, 2,4-dihydroxy-N-(4-(hydroxycarbamoyl)benzyl)-5-isopropyl-N-(4-(4-methylpiperazin-1-yl)phenyl)benzamide] | 1.25 ± 0.13 µM | 173 nM | 645 nM | 5.88 nM | 36.7 nM | 60.5 nM
11 | CC(C)c1cc(C(=O)N(Cc2ccc(C(=O)NO)cc2)c2ccc(N3CCCCC3)cc2)c(O)cc1O [Compound 74, 2,4-dihydroxy-N-(4-(hydroxycarbamoyl)benzyl)-5-isopropyl-N-(4-(piperidin-1-yl)phenyl)benzamide] | 4.83 ± 0.47 µM | 1230 nM | 2700 nM | 70.5 nM | 98.7 nM | 373 nM
12 | CC(C)c1cc(C(=O)N(Cc2ccc(C(=O)NO)cc2)c2ccc(O)cc2)c(O)cc1O [Compound 76, 2,4-Dihydroxy-N-(4-hydroxycarbamoyl-benzyl)-N-(4-hydroxy-phenyl)-5-isopropyl-benzamide] | 0.83 ± 0.01 µM | 961 nM | 2840 nM | 6.54 nM | 35 nM | 51.8 nM
